Literature values as cited in patent US20160324856A1, “USE OF SGC STIMULATORS FOR THE TREATMENT OF NEUROMUSCULAR DISORDERS” (IRONWOOD PHARMACEUTICALS, INC., priority 2014, published 2016).

Assays:
[1] = system: dystrophin-deficient zebrafish

In the case of `CCCc1nn(C)c2c(=O)[nH]c(-c3cc(S(=O)(=O)N4CCN(C)CC4)ccc3OCC)nc12` [sildenafil], the “dystrophic skeletal muscle and survival” value [1] is given as “rescue dystrophic skeletal muscle and prolong survival”, the cardiac dynamics (mdx mouse; mdx mice) is given as “improve cardiac dynamics” and the “muscle ischemia, injury and fatigue” value (mdx mouse; mdx mouse, after a brief bout of exercise) is given as “alleviate muscle ischemia, as well as injury and fatigue”.
